ChEMBL document CHEMBL1132887, “Syntheses and biological evaluation of novel 2alpha-substituted 1alpha,25-dihydroxyvitamin D3 analogues” (2000)

Tests used:
Parameters in all cases: reference not given here
[1] = target: T1, Vitamin D3 receptor (Bos taurus) (UniProt Q28037); experiment: Binding affinity for bovine thymus vitamin D receptor (VDR)
T1 sequence (whole entry): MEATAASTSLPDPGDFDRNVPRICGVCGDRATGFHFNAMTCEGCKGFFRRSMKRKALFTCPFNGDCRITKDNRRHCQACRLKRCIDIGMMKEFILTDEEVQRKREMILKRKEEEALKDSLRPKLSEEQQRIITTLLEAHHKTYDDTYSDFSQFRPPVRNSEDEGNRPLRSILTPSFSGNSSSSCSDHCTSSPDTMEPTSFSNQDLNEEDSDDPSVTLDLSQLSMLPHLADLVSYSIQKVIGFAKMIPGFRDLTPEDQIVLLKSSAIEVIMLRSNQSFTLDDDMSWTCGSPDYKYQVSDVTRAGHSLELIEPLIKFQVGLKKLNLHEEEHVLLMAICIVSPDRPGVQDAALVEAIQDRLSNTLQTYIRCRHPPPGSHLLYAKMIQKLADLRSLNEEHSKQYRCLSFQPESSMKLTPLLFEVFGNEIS

[2] = system: HL-60; experiment: Compound was evaluated for HL-60 cell differentiation which was assessed in terms of expression of antigen CD11b; format: functional, Homo sapiens
[3] = target: T2, Vitamin D-binding protein (Rattus norvegicus) (UniProt P04276); experiment: Compound was tested for binding affinity against rat serum DBP (vitamin D binding protein); format: cell-free
T2 sequence (whole entry): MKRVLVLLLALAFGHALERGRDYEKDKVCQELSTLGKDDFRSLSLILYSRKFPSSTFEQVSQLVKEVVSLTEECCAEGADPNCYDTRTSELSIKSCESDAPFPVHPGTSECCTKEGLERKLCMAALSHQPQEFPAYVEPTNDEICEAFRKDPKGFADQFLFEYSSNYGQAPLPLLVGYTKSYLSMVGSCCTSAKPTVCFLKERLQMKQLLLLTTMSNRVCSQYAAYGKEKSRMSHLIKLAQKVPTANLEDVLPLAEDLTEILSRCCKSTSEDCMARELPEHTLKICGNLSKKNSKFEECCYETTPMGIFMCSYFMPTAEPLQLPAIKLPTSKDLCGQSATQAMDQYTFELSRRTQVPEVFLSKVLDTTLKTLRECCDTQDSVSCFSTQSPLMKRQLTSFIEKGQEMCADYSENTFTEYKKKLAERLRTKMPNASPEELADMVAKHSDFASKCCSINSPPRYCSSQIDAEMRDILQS

[4] = species on record: Rattus norvegicus; experiment: Compound was evaluated for calcium mobilizing activity in rat serum; format: functional

Activity [1]	Activity [3]	SMILES	Activity [2]	Activity [4]
400	44	C=C1/C(=C\C=C2/CCC[C@]3(C)[C@@H]([C@H](C)CCCC(C)(C)O)CC[C@@H]23)C[C@@H](O)[C@H](C)[C@@H]1O	444	658
20	95	C=C1/C(=C\C=C2/CCC[C@]3(C)[C@@H]([C@H](C)CCCC(C)(C)O)CC[C@@H]23)C[C@@H](O)[C@H](CO)[C@@H]1O	10	124
100	100	C=C1/C(=C\C=C2/CCC[C@]3(C)[C@@H]([C@H](C)CCCC(C)(C)O)CC[C@@H]23)C[C@@H](O)C[C@@H]1O [CALCITRIOL]	100	100
40	48	C=C1/C(=C\C=C2/CCC[C@]3(C)[C@@H]([C@H](C)CCCC(C)(C)O)CC[C@@H]23)C[C@@H](O)[C@H](CC)[C@@H]1O	106	68
300	362	C=C1/C(=C\C=C2/CCC[C@]3(C)[C@@H]([C@H](C)CCCC(C)(C)O)CC[C@@H]23)C[C@@H](O)[C@H](CCCO)[C@@H]1O	240	50866
20	21	C=C1/C(=C\C=C2/CCC[C@]3(C)[C@@H]([C@H](C)CCCC(C)(C)O)CC[C@@H]23)C[C@@H](O)[C@H](CCC)[C@@H]1O	44	636
70	74	C=C1/C(=C\C=C2/CCC[C@]3(C)[C@@H]([C@H](C)CCCC(C)(C)O)CC[C@@H]23)C[C@@H](O)[C@H](CCO)[C@@H]1O	86	372
